The record followed here is patent US11026931B2, “Methods for the administration of certain VMAT2 inhibitors” (Neurocrine Biosciences, Inc., priority 2018, dated 2021).

Series [1] has as its system prolactin release from the pituitary, modulated through the D2 dopamine receptor. The series can be described thus: In vivo surrogate measure: prolactin release.
In a further series the target is T1, human VMAT1 transporter (Homo sapiens, UniProt P54219).
T1 construct: expressed in transfected cells
T1 sequence (P54219 1-525): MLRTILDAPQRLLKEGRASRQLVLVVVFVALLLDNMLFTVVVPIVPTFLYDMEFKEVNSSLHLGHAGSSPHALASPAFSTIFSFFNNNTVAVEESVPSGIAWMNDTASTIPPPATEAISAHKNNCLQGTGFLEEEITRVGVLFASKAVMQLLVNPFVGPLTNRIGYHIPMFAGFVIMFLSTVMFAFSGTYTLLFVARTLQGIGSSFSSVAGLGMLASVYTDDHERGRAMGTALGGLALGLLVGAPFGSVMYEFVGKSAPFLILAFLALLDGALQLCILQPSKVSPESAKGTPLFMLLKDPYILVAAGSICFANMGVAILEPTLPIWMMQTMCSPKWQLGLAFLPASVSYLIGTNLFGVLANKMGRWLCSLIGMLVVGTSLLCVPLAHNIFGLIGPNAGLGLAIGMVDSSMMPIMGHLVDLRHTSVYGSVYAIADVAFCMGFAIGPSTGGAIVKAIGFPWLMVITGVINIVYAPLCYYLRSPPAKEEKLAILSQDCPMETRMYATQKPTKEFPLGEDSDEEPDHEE
Description: Uptake in cells expressing VMAT1. Particulars: for inhibition of uptake through VMAT1: cells expressing VMAT1, test compounds at concentrations up to 10 μM; for effect on the uptake of monoamines through VMAT1: compared to reserpine. Format: cell-based.

The subject of series [2] is ptosis (adrenergic activation). The series can be described thus: In vivo surrogate measure: ptosis.
The nature of series [3]: Plasma concentrations of circulating metabolites of VBZ. The series is classed as in vivo. Particulars: metabolites formed from VBZ.
The test system of series [4] is dopamine, serotonin and adrenergic receptor subtypes. Description: Radioligand binding assays for monoamine receptor subtypes. The conditions noted are these: for interaction with D1 and D2 receptors: radioligand binding assays and broad panel screen.
The nature of series [5]: Analysis of hypersensitivity and dermatological reactions (case reports). Format: in vivo. The text has this:
A total of 17 cases of hypersensitivity reaction and/or dermatological findings and evidence for possible causal relationship with VBZ have been reported either spontaneously (6) or after solicitation (11). Of these 17 cases, 14 cases had both hypersensitivity reaction with dermatological findings (5 were serious and 9 were non-serious).

[6] abbreviates: of the 14 cases with hypersensitivity reaction and dermatological findings.

`COc1cc2c(cc1OC)C1CC(=O)C(CC(C)C)CN1CC2` (racemic) [TBZ, 1,3,4,6,7, 11b-hexahydro-9,1O-dimethoxy-3-(2-methylpropyl)-2H-benzo(a)quinolizin-2-one, reference compound]: the “increase in serum prolactin levels” value in series [1] is listed as “increase in serum prolactin levels”. At human VMAT1 transporter, the “inhibition of uptake through VMAT1” value was “no significant inhibitory activity” and the “effect on the uptake of monoamines through VMAT1” value (from here on “effect on the uptake”) is on record as “no significant effect”. The induction of ptosis entry in series [2] is recorded as “induced ptosis in an equivalent manner”.

Take `COc1cc2c(cc1OC)[C@H]1C[C@@H](OC(=O)[C@@H](N)C(C)(C)O)[C@H](CC(C)C)CN1CC2` [NBI-136110]: the “half-lives of plasma concentration decline” value in series [3] is given as “half-lives similar to VBZ”. At human VMAT1 transporter, the “inhibition of uptake through VMAT1” value is on record as “no significant inhibitory activity” and the “effect on the uptake” value is “no significant effect”.

Take `COc1cc2c(cc1OC)[C@H]1C[C@@H](O)[C@H](CC(C)C)CN1CC2` [R,R,R-DHTBZ, (2R, 3R,11bR)-3-isobutyl-9,10-dimethoxy-1,3,4,6,7,11b-hexahydro-2H-pyrido[2,1-a]isoquinolin-2-ol]: the “half-lives of plasma concentration decline” value in series [3] was “half-lives similar to VBZ”. In addition, the “increase in serum prolactin levels” value in series [1] is “induced a similar increase in serum prolactin levels as TBZ”. Moreover, the “specificity for the VMAT2 transporter” value in series [4] (versus monoamine receptor subtypes and transporters) is recorded as “high specificity”. Further, on human VMAT1 transporter, the “inhibition of uptake through VMAT1” value is reported as “no significant inhibitory activity” and the “effect on the uptake” value was “no significant effect”. In series [2], the induction of ptosis entry is “induced ptosis in an equivalent manner”.

`COc1cc2c(cc1OC)[C@@H]1C[C@@H](O)[C@@H](CC(C)C)CN1CC2` [R,S,S-DHTBZ]: the “interaction with D1 and D2 receptors” value in series [4] was “interact with D1 and D2 receptors”.

On to `COc1cc2c(cc1OC)[C@@H]1C[C@H](O)[C@@H](CC(C)C)CN1CC2` [S,S,S-DHTBZ], for which the “interaction with D1 and D2 receptors” value in series [4] is “interact with D1 and D2 receptors”.

`COc1cc2c(cc1OC)[C@H]1C[C@@H](OC(=O)[C@@H](N)C(C)C)[C@H](CC(C)C)CN1CC2` [Valbenazine, (S)-2-amino-3-methyl-butyric acid (2R, 3R,11 bR)-3-isobutyl-9,10-dimethoxy-1,3,4,6,7,11b-hexahydro-2H-pyrido[2,1-a]isoquinolin-2-yl ester]: in series [5] (case reports received through 10 Oct. 2017), the “association with hypersensitivity reactions” value is reported as “may be associated with hypersensitivity reactions with or without dermatological reactions”. For the same compound, in series [5] (setting [6]), the non-serious cases was found to be 9 cases and the serious cases stood at 5 cases. In series [5] (of the 17 cases), the “cases with both hypersensitivity reaction and dermatological findings” value amounted to 14 cases. Besides, at human VMAT1 transporter, the “inhibition of uptake through VMAT1” value was “no significant inhibitory activity” and the “effect on the uptake” value is “no significant effect”. Further, the induction of ptosis result in series [2] is on record as “induced ptosis in an equivalent manner”.

In the case of `COC(=O)[C@H]1[C@H]2C[C@@H]3c4[nH]c5cc(OC)ccc5c4CCN3C[C@H]2C[C@@H](OC(=O)c2cc(OC)c(OC)c(OC)c2)[C@@H]1OC` [reserpine, reference compound], the “inhibition of uptake through VMAT1” value against human VMAT1 transporter is given as “substantially inhibited uptake through VMAT1”.
